“Also recorded” adds a separate entry of the source.
What was measured:
HT29 colon = assay: MTT growth inhibition assay, HT29; format: cell-based, human; details: MTT assay, 72 h
U87 glioblastoma = assay: MTT growth inhibition assay, U87; format: cell-based, human; details: 72 h
MCF-7 breast = assay: MTT growth inhibition assay, MCF-7; format: cell-based, human; details: for GI50: MTT assay, 72 h
A2780 ovarian = assay: MTT growth inhibition assay, A2780; format: cell-based, human; details: 72 h
H460 lung = assay: MTT growth inhibition assay, H460; format: cell-based, human; details: 72 h
A431 skin = assay: MTT growth inhibition assay, A431; format: cell-based, human; details: 72 h
Du145 prostate = assay: MTT growth inhibition assay, Du145; format: cell-based, human; details: for GI50: MTT assay, 72 h
BE2-C neuroblastoma = assay: MTT growth inhibition assay, BE2-C; format: cell-based, human; details: 72 h
SJ-G2 glioblastoma = assay: MTT growth inhibition assay, SJ-G2; format: cell-based, human; details: 72 h
MIA pancreas = assay: MTT growth inhibition assay, MIA; format: cell-based, human; details: 72 h
[1] = tested on: non-tumour derived MCF10A breast line; assay: MTT growth inhibition assay, MCF10A; format: cell-based, human; details: 72 h
[2] = tested on: ADDP-resistant ovarian variant; assay: MTT growth inhibition assay, ADDP; format: cell-based, human; details: for GI50: MTT assay, 72 h
panel of cell lines = assay: MTT growth inhibition assay, whole panel of cell lines; format: cell-based, human; details: average over the cell lines tested, MTT assay, 72 h
[3] = Lipophilicity by HPLC (log kw); format: physicochemical; details: for log kw: chromatographic lipophilicity index, extrapolated to 100% d.i.H2O; for log kw (y-intercept of log k versus [CH3CN] % plot, Figure S80): linear fit
Excerpt: For lipophilicity measurements, HPLC was utilised instead of the traditional shake-flask method, as described previously. Recent studies have also reported the efficiency of HPLC in measuring the lipophilicity of compounds [79, 80]. Each complex was eluted under several isocratic ratios. A standard curve was generated to calculate the log value of the capacity factor (log k) according to Equation (1). Following Equation (2), the percentage of organic solvent (CH3CN) in the mobile phase from each isocratic run was plotted against log kw (Figure S80). Log kw is the chromatographic lipophilicity index or measure of lipophilicity of the complex, so a higher value corresponds to greater lipophilicity. Because the selected axial ligands in this study contain F, Cl, Br, and I, it was only appropriate to determine the influence of the halogens on the overall lipophilicity of the platinum(IV) complexes. […] Conversely, the least lipophilic complex was the phen derivative containing 4-FPA, 3, with a log kw of 0.25. Furthermore, for the phen derivatives, the order of increasing lipophilicity was 3 > 1 > 5 > 7, which corresponds to the order of increasing size of the halogens, F > Cl > Br > I. This pattern was also observed with the 5,6-Me2phen derivatives (4 > 2 > 6 > 8), thereby confirming that the halogens increased the order of lipophilicity accordingly based on their size.
For lipophilicity measurements, analytical HPLC was utilised. Elution profiles were acquired on an Agilent (Melbourne, VIC, Australia) Technologies 1260 Infinity instrument equipped with a Phenomenex Onyx^TM Monolithic C18-reverse phase column (100 × 4.6 mm, 5 µm pore size) (Sydney, NSW, Australia). The mobile phase consisted of solvents, A (0.06% TFA in d.i.H2O) and B (0.06% TFA in CH3CN/d.i.H2O (90:10)). Potassium iodide was used as an external dead volume marker to determine the dead time of the column. Retention times (TR) were measured at varying isocratic ratios ranging from 30 to 36% of solvent B at 1 mL·min^−1 mL. An injection volume of 10 µL was utilised. Capacity factors were determined according to Equation (1):(1) k=(TR−T0)/T0 where k is the capacity factor, TR is the retention time of the analyte, and T0 represents the dead time. A minimum of four different mobile compositions were used for each complex to calculate k. A linear plot was generated of log k against the concentration of CH3CN in the mobile phase to determine the value of log kw expressed by Equation (2):(2) logk=Sφ+logkw where S is the slope, φ is the concentration of the CH3CN in the mobile phase, and log kw represents the capacity factor of the complex in 100% d.i.H2O. Extrapolation of this linear plot to the y-intercept indicates the log kw value.

[4] = Reduction experiments with AsA by 1H-NMR and 1D-195Pt-NMR; format: physicochemical; details: D2O, 37 °C; for T50% (approximate time at which 50% reduction occurs): 10 mM PBS (~7.4 pH); for T50% (approximate time at which 50% reduction occurs) / time at which reduction starts: 1H-NMR; for extent of reduction 1 h after the final 1H-NMR experiment (1D-195Pt-NMR) / time at which reduction starts / extent of reduction at 1 h (1H-NMR): PBS; for extent of reduction 1 h after the final 1H-NMR experiment (1D-195Pt-NMR): regions −2800 and 400 ppm
Excerpt: Platinum(IV) complexes are reduced to their platinum(II) precursors by intracellular biological reducing agents such as AsA or GSH in tumour cells. However, the precise mechanism by which reduction occurs is not fully understood. In this paper, reduction reaction experiments were undertaken on the synthesised platinum(IV) complexes, 1–8, with the aid of ^1H-NMR and 1D-^195Pt-NMR spectroscopy. The method used for the reduction reaction experiments was adapted from the literature without modifications. A total of 10 mM PBS (~7.4 pH) was selected as media, and AsA was used as the biological reducing agent to investigate the reduction property of 1–8. Prior to the reduction reaction experiments, a control was prepared where each metal complex was dissolved with PBS in D2O. 1D-^195Pt-NMR was measured within the regions of −2800 and 400 ppm (30 min per region), at 37 °C. This was undertaken to confirm that the PBS would not interfere with the reduction process of the metal complexes. […] The approximate time points for the studied complexes at which an estimated 50% reduction had occurred, in the presence of AsA, as represented by T50%, are summarised in Table 6.
The reduction properties of 1–8 were monitored using ^1H-NMR and 1D-^195Pt-NMR spectroscopy on a 400 MHz Bruker (Melbourne, VIC, Australia) Avance Spectrometer. A sequence of ^1H-NMR experiments was carried out for 1 h at 37 °C, followed by 1D-^195Pt-NMR within the regions of −2800 and 400 ppm. An amount of 10 mM PBS (~7.4 pH) was transferred to a vial and reduced to dryness through rotary evaporation. AsA (~1 mg) was combined with the metal complex (~5 mg) and transferred to the vial containing the dried PBS. A total of 600 µL of D2O was then added to the vial to dissolve the complex, AsA, and the PBS together.

HT29 colon cells = assay: ROS detection assay (DCFH-DA); format: cell-based, human; details: HT29 colon cells, treated at GI50 concentration (TBHP positive control 20 μM)
Excerpt: Although ROS is required for cancer cell function and progression, it can induce programmed cell death or apoptosis. […] In this study, we report the ROS activity of the studied platinum(IV) complexes, 1–8, together with the individual axial ligands (4-CPA, 4-FPA, 4-BPA, and 4-IPA) in the human cancer cell line, HT29 colon (Figure 19, Table 8, and Figure S95). The ROS potential of their platinum(II) and platinum(IV) precursors in the same cell line is also presented for comparison purposes (Table 8). […] HT29 colon cells were stained by DCFH-DA and then treated with the complexes at each specific GI50 concentration. Upon ROS production, the DCFH-DA produced dichlorodihydrofluorescein, a fluorescent product. The measured fluorescence was, therefore, proportional to the produced ROS.
To investigate the presence of ROS in treated cells, a DCFDA/H2DCFDA-cellular ROS Assay Kit (Abcam, Cambridge, MA, USA) was used, as previously described. A total of 25,000 cells/mL of HT29 cells in DMEM were seeded in 96-well plates. Cells were washed with 1X kit buffer, and then stained with 25 μM 2′,7′-dichlorofluorescein diacetate (DCFH-DA) and incubated for 45 min. DCFH-DA was then removed, and cells were then re-washed with 1X kit buffer, after which phenol red free media was added. Cells were then treated with a GI50 drug concentration for each complex. The plates were directly scanned to measure fluorescence (relative fluorescence units (RFU)) at different time points using the Glo-Max®-Multimode microplate reader (Promega Corporation, Alexandra, VIC, Australia) at an excitation/emission of 485/535 nm. To generate the positive control (20 μM tert-butyl hydroperoxide (TBHP)), cells were washed with 1X kit buffer, and stained with DCFDA (25 μM) for 45 min; this was removed and TBHP was added in phenol red free media, and the resulting solution was scanned as described above.

[5] = Du145 prostate, ratio of GI50 values

Row | Structure (SMILES) | GI50 (HT29 colon) [µM] | GI50 (U87 glioblastoma) [µM] | GI50 (MCF-7 breast) [µM] | GI50 (A2780 ovarian) [µM] | GI50 (H460 lung) [µM] | GI50 (A431 skin) [µM] | GI50 (Du145 prostate) [µM] | GI50 (BE2-C neuroblastoma) [µM] | GI50 (SJ-G2 glioblastoma) [µM] | GI50 (MIA pancreas) [µM] | GI50 [1] [µM] | GI50 [2] [µM] | GI50 (panel of cell lines) [µM] | log kw [3] | log kw (y-intercept of log k versus [CH3CN] % plot, Figure S80) [3] | T50% (approximate time at which 50% reduction occurs) [4] [min] | extent of reduction 1 h after the final 1H-NMR experiment (1D-195Pt-NMR) [4] | ROS production 24 h (HT29 colon cells) [RFU] | ROS production 48 h (HT29 colon cells) [RFU] | ROS production 72 h (HT29 colon cells) [RFU] | also measured
1 | Cc1c(C)c2c3c4c1=CC=C[N]4[Pt+2]([OH])([O]C(=O)Cc1ccc(Br)cc1)[N]3C=CC=2.N[C@H]1CCCC[C@@H]1N [Complex 6, [Pt^IV(5,6-Me2phen)(SS-DACH)(4-BPA)(OH)]^2+] | 0.007 ± 0.002 | 0.035 ± 0.005 | 0.021 ± 0.005 | 0.02 ± 0.003 | 0.01 ± 0.002 | 0.019 ± 0.0009 | 0.001 ± 0.0006 | 0.1 ± 0.02 | 0.023 ± 0.005 | 0.007 ± 0.002 | 0.01 ± 0.002 | 0.006 ± 0.002 | 0.022 ± 0.004 | 1.07 | 1.0701 | 30 | partial reduction; also recorded: traces of platinum(IV) species were still observed | 496 ± 14 | 598 ± 14 | 643 ± 14 | fold more potent than 56MESS (Du145 prostate; [5]): 4.6 fold; fold more potent than cisplatin (Du145 prostate; [5]): 1200 fold; fold more potent than cisplatin ([2]; ADDP-resistant ovarian variant, ratio of GI50 values): ~4700 fold
2 | Cc1c(C)c2c3c4c1=CC=C[N]4[Pt+2]([OH])([O]C(=O)Cc1ccc(I)cc1)[N]3C=CC=2.N[C@H]1CCCC[C@@H]1N [Complex 8, [Pt^IV(5,6-Me2phen)(SS-DACH)(4-IPA)(OH)]^2+] | 0.178 ± 0.031 | 0.9 ± 0.058 | 0.42 ± 0.062 | 0.26 ± 0.045 | 0.39 ± 0.033 | 0.43 ± 0.16 | 0.1 ± 0.021 | 0.65 ± 0.081 | 0.52 ± 0.029 | 0.3 ± 0.055 | 0.26 ± 0.022 | 0.23 ± 0.015 | 0.387 ± 0.05 | 1.19 | 1.1909 | 5 to 10 | complete reduction | 345 ± 19.3 | 406 ± 14 | 466 ± 13 | 
3 | Cc1c(C)c2c3c4c1=CC=C[N]4[Pt+2]([OH])([O]C(=O)Cc1ccc(Cl)cc1)[N]3C=CC=2.N[C@H]1CCCC[C@@H]1N [Complex 2, [Pt^IV(5,6-Me2phen)(SS-DACH)(4-CPA)(OH)]^2+] | 0.022 ± 0.0092 | 0.079 ± 0.03 | 0.18 ± 0.077 | 0.043 ± 0.01 | 0.2 ± 0.17 | 0.041 ± 0.008 | 0.033 ± 0.021 | 0.11 ± 0.018 | 0.1 ± 0.045 | 0.028 ± 0.0055 | 0.035 ± 0.0078 | 0.026 ± 0.0045 | 0.075 ± 0.03 |  | 0.9477 | 20 to 25 | entirely reduce back to its platinum(II) precursor, 56MESS; also recorded: complete reduction | 358 ± 21 | 508 ± 16 | 564 ± 10 | fold less potent than 56MESS (MCF-7 breast): ~2 fold; time at which reduction starts [4]: 5 min; extent of reduction at 1 h (1H-NMR) [4]: almost reduced
4 | N[C@H]1CCCC[C@@H]1N.O=C(Cc1ccc(Cl)cc1)[O][Pt+2]1([OH])[N]2C=CC=c3ccc4c(c32)[N]1C=CC=4 [Complex 1, [Pt^IV(phen)(SS-DACH)(4-CPA)(OH)]^2+] | 0.15 ± 0.064 | 0.74 ± 0.23 | 0.86 ± 0.18 | 0.28 ± 0.067 | 0.38 ± 0.081 | 0.56 ± 0.073 | 0.14 ± 0.043 | 0.49 ± 0.093 | 0.42 ± 0.092 | 0.27 ± 0.042 | 0.29 ± 0.09 | 0.29 ± 0.05 | 0.406 ± 0.09 | 0.75 | 0.7472 | 15 to 20 | reduced entirely to PHENSS; also recorded: complete reduction | 272 ± 9 | 368 ± 19 | 409 ± 11 | time at which reduction starts [4]: 5 min; extent of reduction at 1 h (1H-NMR) [4]: almost entirely reduced to its platinum(II) precursor, PHENSS

From paper PMC9611758, “Bioactive Platinum(IV) Complexes Incorporating Halogenated Phenylacetates” (Molecules, 2022)
